For three molecules, EC50 results are on record in patent US20050203151A1, “Novel compounds, compositions and uses thereof for treatment of metabolic disorders and related conditions” (Kalypsys, Inc., priority 2003, published 2005).

Where two headings read alike, the source gives them in different places.

Common to all, as to assay type: cell-based
One assay has as its target T1, PPAR-delta (Homo sapiens, UniProt Q03181).
T1 construct: expressed in transfected cells; host or cells: CV-1 cells
T1 sequence (Q03181 211-439 limits assumed): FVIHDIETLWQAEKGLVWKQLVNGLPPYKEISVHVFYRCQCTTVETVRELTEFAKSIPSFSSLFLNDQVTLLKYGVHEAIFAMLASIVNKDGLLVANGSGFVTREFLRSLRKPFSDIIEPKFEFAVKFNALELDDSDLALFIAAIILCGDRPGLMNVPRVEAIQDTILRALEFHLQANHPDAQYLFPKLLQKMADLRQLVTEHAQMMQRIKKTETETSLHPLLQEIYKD
The assay can be described thus: human PPAR-GAL4 chimera luciferase reporter assay in CV-1 cells, PPAR-delta. As to the method:
(§1) The compounds were evaluated in a cell-based assay to determine their human PPAR activity. The plasmids for human PPAR-GAL4 chimeras were prepared by fusing amplified cDNAs encoding the LBDs of PPARs to the C-terminal end of the yeast GAL4 DNA binding domain. CV-1 cells were grown and transiently transected with PerFectin (GTS, San Diego, Calif.) according to the manufacturer's protocol along with a luciferase reporter. Eight hours after transfection, 50 μl of cells were replated into 384 well plates ([…]). Sixteen hours after replating, cells were treated with either compounds or 1% DMSO for 24 hours. Luciferase activity was then assayed with Britelite (Perkin Elmer) following the manufacturer's protocol and measured with either the Perkin Elmer Viewlux or Molecular Devices Acquest.
(§2) Compounds may be screened for functional potency in transient transfection assays in CV-1 cells for their ability to activate the PPAR subtypes (transactivation assay). A previously established chimeric receptor system was utilized to allow comparison of the relative transcriptional activity of the receptor subtypes on the same synthetic response element and to prevent endogenous receptor activation from complicating the interpretation of results. See, for example, Lehmann, J. M.; Moore, L. B.; Smith-Oliver, T. A; Wilkinson, W. O.; Willson, T. M.; Kliewer, S. A., An antidiabetic thiazolidinedione is a high affinity ligand for peroxisome proliferator-activated receptory γ (PPARγ), J. Biol. Chem., 1995, 270, 12953-6. The ligand binding domains for murine and human PPAR-alpha, PPAR-gamma, and PPAR-delta are each fused to the yeast transcription factor GAL4 DNA binding domain. CV-1 cells were transiently transfected with expression vectors for the respective PPAR chimera along with a reporter construct containing four or five copies of the GAL4 DNA binding site driving expression of luciferase. After 8-16 h, the cells are replated into multi-well assay plates and the media is exchanged to phenol-red free DME medium supplemented with 5% delipidated calf serum. 4 hours after replating, cells were treated with either compounds or 1% DMSO for 20-24 hours. Luciferase activity was then assayed with Britelite (Perkin Elmer) following the manufacturer's protocol and measured with either the Perkin Elmer Viewlux or Molecular Devices Acquest (see, for example, Kliewer, S. A., et. al. Cell 1995, 83, 813-819). Rosiglitazone is used as a positive control in the hPPAR-γ assay. Wy-14643 and GW7647 is used as a positive control in the hPPAR-α assay. GW501516 is used as the positive control in the hPPAR-δ assay.
For orientation: A reporter such as luciferase makes a cellular process visible.

In a further assay the target is T2, PPAR-alpha (Homo sapiens, UniProt Q07869).
T2 construct: expressed in transfected cells; host or cells: CV-1 cells
T2 sequence (Q07869 239-466 limits assumed): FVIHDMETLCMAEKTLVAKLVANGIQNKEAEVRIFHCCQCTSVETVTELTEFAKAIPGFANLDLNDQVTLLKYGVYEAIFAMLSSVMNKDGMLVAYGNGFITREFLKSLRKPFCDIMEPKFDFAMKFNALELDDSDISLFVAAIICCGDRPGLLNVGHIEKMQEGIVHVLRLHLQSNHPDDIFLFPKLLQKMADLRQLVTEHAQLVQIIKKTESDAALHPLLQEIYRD
The assay can be described thus: human PPAR-GAL4 chimera luciferase reporter assay in CV-1 cells, PPAR-alpha. As to the method: as §1, §2

The next assay addresses T3, PPAR-gamma (Homo sapiens, UniProt P37231).
T3 construct: expressed in transfected cells; host or cells: CV-1 cells
T3 sequence (P37231 238-503 limits assumed): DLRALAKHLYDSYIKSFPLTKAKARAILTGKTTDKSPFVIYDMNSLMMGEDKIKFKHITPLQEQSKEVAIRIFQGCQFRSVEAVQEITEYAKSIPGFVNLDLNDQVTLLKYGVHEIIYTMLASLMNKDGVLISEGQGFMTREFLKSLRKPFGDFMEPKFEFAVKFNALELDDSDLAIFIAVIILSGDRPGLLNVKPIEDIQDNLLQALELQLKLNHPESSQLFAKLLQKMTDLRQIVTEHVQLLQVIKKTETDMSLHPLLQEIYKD
The assay can be described thus: human PPAR-GAL4 chimera luciferase reporter assay in CV-1 cells, PPAR-gamma. As to the method: as §1, §2

Setting [1] is: Table 2, Examples 1-10, read-out: PPAR δ EC50.
The mark [2] stands for this setting: Table 2, Examples 1-10, read-out: PPAR α EC50.
[3] abbreviates: Table 2, Examples 1-10, read-out: PPAR γ EC50.

As for `Cc1nc(-c2ccc(C(F)(F)F)cc2)sc1Cn1cc(C(=O)O)c2ccccc21` [Example 8], the EC50 at PPAR-delta (setting [1]), at PPAR-alpha (setting [2]) and at PPAR-gamma (setting [3]) was above 10 µM in each case.

On to `Cc1nc(-c2ccc(C(F)(F)F)cc2)sc1CCn1ccc2ccc(OCC(=O)O)cc21` [Example 22, (1-{2-[4-Methyl-2-(4-trifluoromethyl-phenyl)-thiazol-5-yl]-ethyl}-1H-indol-6-yloxy)-acetic acid], for which the EC50 on PPAR-delta (Table 3, Examples 11-25, read-out: PPAR delta (EC50)) lay in the range of 5 to 100 µM; on PPAR-alpha (Table 3, Examples 11-25, read-out: PPAR alpha (EC50)), 5 to 100 µM; on PPAR-gamma (Table 3, Examples 11-25, read-out: PPAR gamma (EC50)), 5 to 100 µM.

As to `Cc1nc(-c2ccc(C(F)(F)F)cc2)sc1Cn1ccc2c(C(=O)O)cccc21` [Example 9, 1-[4-methyl-2-(4-trifluoromethyl-phenyl)-thiazol-5-ylmethyl]-1H-indole-4-carboxylic acid], the EC50 at PPAR-delta (setting [1]), on PPAR-alpha (setting [2]) and at PPAR-gamma (setting [3]) was above 10 µM throughout.
